Where a SMILES comes first, the peptide text is derived from it. Bridges are numbered along the chain shown (N, C = ends). [ ]: non-standard residue; d: D form. R8 = C=CCCCCCC[C@@](C)(N)C(=O)O; Cha = N[C@@H](CC1CCCCC1)C(=O)O; Chg = N[C@H](C(=O)O)C1CCCCC1; hLeu = CC(C)CC[C@H](N)C(=O)O; S5 = C=CCCC[C@](C)(N)C(=O)O; Nle = CCCC[C@H](N)C(=O)O; Ac3c = NC1(C(=O)O)CC1; Aib = CC(C)(N)C(=O)O
Key:
MDMX = molecular target: T1, MDMX (Homo sapiens, UniProt O15151); experiment: Competitive fluorescence polarization assay for MDMX; type: binding; conditions: competitive FP assay; for IC50: read-out: IC50 (MDMX); for Ki: read-out: Ki (MDMX)
T1 sequence (O15151 1-125): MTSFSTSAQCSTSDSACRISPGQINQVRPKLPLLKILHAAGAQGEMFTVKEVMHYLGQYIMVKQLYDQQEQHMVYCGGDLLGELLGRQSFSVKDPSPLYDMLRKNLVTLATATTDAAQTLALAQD

MDM2 = MDM2 (Homo sapiens, UniProt Q00987); experiment: Competitive fluorescence polarization assay for MDM2; type: binding; conditions: competitive FP assay, MDM2; for IC50: read-out: IC50 (MDM2); for Ki: read-out: Ki (MDM2)
MDM2, sequence (Q00987 1-125): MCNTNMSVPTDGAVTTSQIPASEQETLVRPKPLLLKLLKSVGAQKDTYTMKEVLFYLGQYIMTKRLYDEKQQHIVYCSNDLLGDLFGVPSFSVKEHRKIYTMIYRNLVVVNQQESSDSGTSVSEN

Compound	IC50 (MDMX) [nM]	Ki (MDMX) [nM]	IC50 (MDM2) [nM]	Ki (MDM2) [nM]
CC(=O)N[C@@H](Cc1ccccc1)C(=O)N[C@]1(C)CCCCCCC=CCCC[C@@](C)(C(=O)N[C@@H](C)C(=O)N[C@@H](C)C(=O)N[C@H](C(N)=O)C2CCCCC2)NC(=O)[C@H](CC(C)C)NC(=O)C2(CC2)NC(=O)[C@H](CCC(=O)O)NC(=O)[C@H](Cc2c[nH]c3ccccc23)NC(=O)[C@H](Cc2ccc(O)cc2)NC(=O)[C@H](C)NC1=O [compound 20] (Ac-F[R8]AYWE[Ac3c]L[S5]AA[Chg]-NH2; staple 2-9)	100 to 1000	10 to 100	100 to 1000	10 to 100
CC(=O)N[C@@H](Cc1ccccc1)C(=O)N[C@]1(C)CCCCCCC=CCCC[C@@](C)(C(=O)N[C@@H](C)C(=O)N[C@@H](C)C(=O)N[C@@H](CC2CCCCC2)C(N)=O)NC(=O)[C@H](CC(C)C)NC(=O)C2(CC2)NC(=O)[C@H](CCC(=O)O)NC(=O)[C@H](Cc2c[nH]c3ccccc23)NC(=O)[C@H](Cc2ccc(O)cc2)NC(=O)[C@H](C)NC1=O [compound 21] (Ac-F[R8]AYWE[Ac3c]L[S5]AA[Cha]-NH2; staple 2-9)	10 to 100	10 to 100	100 to 1000	10 to 100
CC(=O)N[C@@H](CC(=O)O)C(=O)N[C@@H](CC(C)C)C(=O)N[C@H](C(=O)N[C@@H](Cc1ccccc1)C(=O)N[C@]1(C)CCCCCCC=CCCC[C@@](C)(C(=O)N[C@@H](CCCNC(=N)N)C(=O)N[C@@H](CCCNC(=N)N)C(=O)N[C@@H](CC(C)C)C(=O)N[C@H](C(N)=O)C(C)C)NC(=O)[C@H](CC(C)C)NC(=O)[C@H](CCC(N)=O)NC(=O)[C@H](Cc2c[nH]cn2)NC(=O)[C@H](Cc2c[nH]c3ccccc23)NC(=O)[C@H](Cc2c[nH]cn2)NC(=O)[C@H](Cc2c[nH]cn2)NC1=O)[C@@H](C)O [compound 28] (Ac-DLTF[R8]HHWHQL[S5]RRLV-NH2; staple 5-12)	10 to 100	10 to 100	10 to 100	< 10
CC(=O)N[C@@H](Cc1ccccc1)C(=O)N[C@]1(C)CCCCCCC=CCCC[C@@](C)(C(=O)N[C@@H](CCCNC(=N)N)C(=O)N[C@@H](CCCNC(=N)N)C(=O)N[C@@H](CC(=O)O)C(=O)N[C@@H](CC2CCCCC2)C(N)=O)NC(=O)[C@H](CC(C)C)NC(=O)[C@H](CCC(N)=O)NC(=O)[C@H](Cc2c[nH]cn2)NC(=O)[C@H](Cc2c[nH]c3ccccc23)NC(=O)[C@H](Cc2c[nH]cn2)NC(=O)[C@H](Cc2c[nH]cn2)NC1=O [compound 30] (Ac-F[R8]HHWHQL[S5]RRD[Cha]-NH2; staple 2-9)	100 to 1000	10 to 100	100 to 1000	10 to 100
CCCC[C@H](NC(=O)[C@H](Cc1c[nH]cn1)NC(=O)[C@H](Cc1c[nH]cn1)NC(=O)[C@]1(C)CCCC=CCCCCCC[C@@](C)(NC(=O)[C@H](Cc2ccccc2)NC(C)=O)C(=O)N[C@@H](C)C(=O)N[C@@H](Cc2ccc(O)cc2)C(=O)N[C@@H](Cc2c[nH]c3ccccc23)C(=O)N[C@@H](C)C(=O)N[C@@H](CCC(N)=O)C(=O)N[C@@H](CC(C)C)C(=O)N1)C(=O)N[C@@H](CC(C)C)C(N)=O [compound 38] (Ac-F[R8]AYWAQL[S5]HH[Nle]L-NH2; staple 2-9)	100 to 1000	10 to 100	> 1000	100 to 1000
CC(=O)N[C@@H](Cc1ccccc1)C(=O)N[C@]1(C)CCCCCCC=CCCC[C@@](C)(C(=O)N[C@@H](CCC(N)=O)C(=O)N[C@@H](Cc2c[nH]cn2)C(=O)N[C@H](C(=O)N[C@H](CC(C)C)C(N)=O)C2CCCCC2)NC(=O)[C@H](CC(C)C)NC(=O)[C@H](CCC(N)=O)NC(=O)[C@H](C(C)C)NC(=O)[C@H](Cc2c[nH]c3ccccc23)NC(=O)[C@H](Cc2ccc(O)cc2)NC(=O)[C@H](C)NC1=O [compound 40] (Ac-F[R8]AYWVQL[S5]QH[Chg][dL]-NH2; staple 2-9)	100 to 1000	10 to 100	100 to 1000	100 to 1000
CC(=O)N[C@@H](Cc1ccccc1)C(=O)N[C@]1(C)CCCCCCC=CCCC[C@@](C)(C(=O)N[C@@H](Cc2c[nH]cn2)C(=O)NC(C)(C)C(=O)N[C@@H](C)C(=O)N[C@H](C)C(N)=O)NC(=O)[C@H](CC(C)C)NC(=O)[C@H](CCC(N)=O)NC(=O)[C@H](Cc2ccc(O)cc2)NC(=O)[C@H](Cc2c[nH]c3ccccc23)NC(=O)[C@H](Cc2ccc(O)cc2)NC(=O)[C@H](C)NC1=O [compound 42] (Ac-F[R8]AYWYQL[S5]H[Aib]A[dA]-NH2; staple 2-9)	100 to 1000	100 to 1000	100 to 1000	10 to 100
CC(=O)N[C@@H](CC(C)C)C(=O)N[C@H](C(=O)N[C@@H](Cc1ccccc1)C(=O)N[C@]1(C)CCCCCCC=CCCC[C@@](C)(C(=O)N[C@@H](Cc2c[nH]cn2)C(=O)NC(C)(C)C(=O)N[C@@H](CCC(C)C)C(=O)N[C@H](C(N)=O)C(C)C)NC(=O)[C@H](CC(C)C)NC(=O)[C@H](CCC(N)=O)NC(=O)[C@H](C)NC(=O)[C@H](Cc2c[nH]c3ccccc23)NC(=O)[C@H](Cc2ccc(O)cc2)NC(=O)[C@H](C)NC1=O)[C@@H](C)O [compound 49] (Ac-LTF[R8]AYWAQL[S5]H[Aib][hLeu]V-NH2; staple 4-11)	100 to 1000	10 to 100	100 to 1000	10 to 100
CC(=O)N[C@@H](CC(=O)O)C(=O)N[C@@H](CC(C)C)C(=O)N[C@H](C(=O)N[C@@H](Cc1ccccc1)C(=O)N[C@]1(C)CCCCCCC=CCCC[C@@](C)(C(=O)N[C@@H](CCCNC(=N)N)C(=O)N[C@@H](CCCNC(=N)N)C(=O)N[C@@H](CC(C)C)C(=O)N[C@H](C)C(N)=O)NC(=O)[C@H](CC(C)C)NC(=O)[C@H](CCC(N)=O)NC(=O)[C@H](Cc2c[nH]cn2)NC(=O)[C@H](Cc2c[nH]c3ccccc23)NC(=O)[C@H](Cc2c[nH]cn2)NC(=O)[C@H](Cc2c[nH]cn2)NC1=O)[C@@H](C)O [compound 52] (Ac-DLTF[R8]HHWHQL[S5]RRL[dA]-NH2; staple 5-12)	10 to 100	< 10	10 to 100	< 10
CC(=O)N[C@@H](Cc1ccccc1)C(=O)N[C@]1(C)CCCCCCC=CCCC[C@@](C)(C(=O)N[C@@H](CCCNC(=N)N)C(=O)N[C@@H](CCCNC(=N)N)C(=O)N[C@@H](CC(=O)O)C(=O)N[C@@H](C)C(N)=O)NC(=O)[C@H](CC(C)C)NC(=O)[C@H](CCC(N)=O)NC(=O)[C@H](Cc2c[nH]cn2)NC(=O)[C@H](Cc2c[nH]c3ccccc23)NC(=O)[C@H](Cc2c[nH]cn2)NC(=O)[C@H](Cc2c[nH]cn2)NC1=O [compound 54] (Ac-F[R8]HHWHQL[S5]RRDA-NH2; staple 2-9)	100 to 1000	10 to 100	100 to 1000	10 to 100
CC(=O)N[C@@H](CCC(=O)O)C(=O)N[C@H](C(=O)N[C@@H](Cc1ccccc1)C(=O)N[C@]1(C)CCCCCCC=CCCC[C@@](C)(C(=O)N[C@@H](CO)C(=O)N[C@@H](C)C(=O)N[C@H](C)C(N)=O)NC(=O)[C@H](CC(C)C)NC(=O)[C@H](CCC(N)=O)NC(=O)[C@H](C)NC(=O)[C@H](Cc2c[nH]c3ccccc23)NC(=O)[C@H](Cc2ccc(O)cc2)NC(=O)[C@H](C(C)C)NC1=O)[C@@H](C)O [compound 124] (Ac-ETF[R8]VYWAQL[S5]SA[dA]-NH2; staple 4-11)	100 to 1000	10 to 100	< 10	< 10
CC(=O)N[C@@H](CCC(=O)O)C(=O)N[C@H](C(=O)N[C@@H](Cc1ccccc1)C(=O)N[C@]1(C)CCCCCCC=CCCC[C@@](C)(C(=O)N[C@@H](CO)C(=O)N[C@@H](Cc2c[nH]c3ccccc23)C(=O)N[C@@H](C)C(N)=O)NC(=O)[C@H](CC(C)C)NC(=O)[C@H](CCC(N)=O)NC(=O)[C@H](C)NC(=O)[C@H](Cc2c[nH]c3ccccc23)NC(=O)[C@H](Cc2ccc(O)cc2)NC(=O)[C@H](C(C)C)NC1=O)[C@@H](C)O [compound 128] (Ac-ETF[R8]VYWAQL[S5]SWA-NH2; staple 4-11)	100 to 1000	10 to 100	< 10	< 10
CC(=O)N[C@@H](CCC(=O)O)C(=O)N[C@H](C(=O)N[C@@H](Cc1ccccc1)C(=O)N[C@]1(C)CCCCCCC=CCCC[C@@](C)(C(=O)N[C@@H](CO)C(=O)N[C@@H](Cc2c[nH]c3ccccc23)C(=O)N[C@@H](C)C(N)=O)NC(=O)[C@H](CC(C)C)NC(=O)[C@H](CCC(N)=O)NC(=O)[C@H](C)NC(=O)[C@H](Cc2c[nH]c3ccccc23)NC(=O)[C@H](Cc2ccc(O)cc2)NC(=O)[C@H](CCCCN)NC1=O)[C@@H](C)O [compound 129] (Ac-ETF[R8]KYWAQL[S5]SWA-NH2; staple 4-11)	100 to 1000	10 to 100	< 10	< 10
CC(=O)N[C@@H](CC(C)C)C(=O)N[C@H](C(=O)N[C@@H](Cc1ccccc1)C(=O)N[C@]1(C)CCCCCCC=CCCC[C@@](C)(C(=O)N[C@@H](CO)C(=O)N[C@@H](CO)C(=O)N[C@H](C)C(N)=O)NC(=O)[C@H](CC(C)C)NC(=O)[C@H](CCC(N)=O)NC(=O)[C@H](C)NC(=O)[C@H](Cc2c[nH]c3ccccc23)NC(=O)[C@H](Cc2ccc(O)cc2)NC(=O)[C@H](C(C)C)NC1=O)[C@@H](C)O [compound 133] (Ac-LTF[R8]VYWAQL[S5]SS[dA]-NH2; staple 4-11)	100 to 1000	10 to 100	< 10	< 10
CC(=O)N[C@@H](CCC(=O)O)C(=O)N[C@H](C(=O)N[C@@H](Cc1ccccc1)C(=O)N[C@]1(C)CCCCCCC=CCCC[C@@](C)(C(=O)N[C@@H](CO)C(=O)N[C@@H](CO)C(=O)N[C@H](C)C(N)=O)NC(=O)[C@H](CC(C)C)NC(=O)[C@H](CCC(N)=O)NC(=O)[C@H](C)NC(=O)[C@H](Cc2c[nH]c3ccccc23)NC(=O)[C@H](Cc2ccc(O)cc2)NC(=O)[C@H](C(C)C)NC1=O)[C@@H](C)O [compound 134] (Ac-ETF[R8]VYWAQL[S5]SS[dA]-NH2; staple 4-11)	100 to 1000	10 to 100	< 10	< 10
